According to PubChem BioAssay AID2060617 (Molecular Pharmacology Branch, DTP, NCI, 2025):
Several values for one entry are separate records, joined by “and”; a condition that tells them apart may be missing. Equal values may be shown once.

System: 485368-065-R4-J2-PDC spheroids with HUVEC/MSC, viability
Experiment: Anticancer human tumor 485368-065-R4-J2-PDC patient-derived pancreatic carcinoma cell line growth inhibition [CLK]
Conditions: for viability, T/C: stronger effect = lower value
How it was run: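 Multi-cell-type spheroids combined patient-derived tumor cells with HUVEC endothelial cells and human mesenchymal stem cells. Paired agents were dosed in half-log steps down from about clinical Cmax, or from 10 microM where Cmax was unknown.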

[1] = curve of first compound, second compound 0.0316 µM
[2] = curve of first compound, second compound 0.1 µM
[3] = curve of first compound, second compound 0.316 µM
[4] = curve of first compound, second compound 1 µM
[5] = curve of first compound, second compound 3.16 µM
[6] = curve of first compound, second compound 10 µM
[7] = second compound 0.0316 µM, first compound 0.0316 µM
[8] = second compound 0.0316 µM, first compound 0.1 µM
[9] = second compound 0.0316 µM, first compound 0.316 µM
[10] = second compound 0.0316 µM, first compound 1 µM
[11] = second compound 0.0316 µM, first compound 3.16 µM
[12] = second compound 0.0316 µM, first compound 10 µM
[13] = second compound 0.1 µM, first compound 0.0316 µM
[14] = second compound 0.1 µM, first compound 0.1 µM
[15] = second compound 0.1 µM, first compound 0.316 µM
[16] = second compound 0.1 µM, first compound 1 µM
[17] = second compound 0.1 µM, first compound 3.16 µM
[18] = second compound 0.1 µM, first compound 10 µM
[19] = second compound 0.316 µM, first compound 0.0316 µM
[20] = second compound 0.316 µM, first compound 0.1 µM
[21] = second compound 0.316 µM, first compound 0.316 µM
[22] = second compound 0.316 µM, first compound 1 µM
[23] = second compound 0.316 µM, first compound 3.16 µM
[24] = second compound 0.316 µM, first compound 10 µM
[25] = second compound 1 µM, first compound 0.0316 µM
[26] = second compound 1 µM, first compound 0.1 µM
[27] = second compound 1 µM, first compound 0.316 µM
[28] = second compound 1 µM, first compound 1 µM
[29] = second compound 1 µM, first compound 3.16 µM
[30] = second compound 1 µM, first compound 10 µM
[31] = second compound 3.16 µM, first compound 0.0316 µM
[32] = second compound 3.16 µM, first compound 0.1 µM
[33] = second compound 3.16 µM, first compound 0.316 µM
[34] = second compound 3.16 µM, first compound 1 µM
[35] = second compound 3.16 µM, first compound 3.16 µM
[36] = second compound 3.16 µM, first compound 10 µM
[37] = second compound 10 µM, first compound 0.0316 µM
[38] = second compound 10 µM, first compound 0.1 µM
[39] = second compound 10 µM, first compound 0.316 µM
[40] = second compound 10 µM, first compound 1 µM
[41] = second compound 10 µM, first compound 3.16 µM
[42] = second compound 10 µM, first compound 10 µM
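Also: spheroids exposed to compounds for seven days.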
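For viability, T/C in this document: 100% = DMSO vehicle control wells.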

SMILES: O=c1[nH]cc(F)c(=O)[nH]1 + CNC(=O)c1ccc(Nc2nc(OC3CCCC3)c3c(-c4ccc5nc(C)oc5c4)c[nH]c3n2)c(OC)c1
- IC50 [1]: > 10 µM
- IC50 [2]: > 10 µM
- IC50 [3]: > 10 µM
- IC50 [4]: > 10 µM
- IC50 [5]: > 10 µM
- IC50 [6]: > 10 µM
- viability, T/C [7]: 82%
- viability, T/C [8]: 98.8%
- viability, T/C [9]: 80.4%
- viability, T/C [10]: 97.6%
- viability, T/C [11]: 95.1%
- viability, T/C [12]: 81%
- viability, T/C [13]: 95.5%
- viability, T/C [14]: 99.2%
- viability, T/C [15]: 97%
- viability, T/C [16]: 103%
- viability, T/C [17]: 93.6%
- viability, T/C [18]: 82.3%
- viability, T/C [19]: 81.4%
- viability, T/C [20]: 80.7%
- viability, T/C [21]: 81.3%
- viability, T/C [22]: 82%
- viability, T/C [23]: 87.3%
- viability, T/C [24]: 74.2%
- viability, T/C [25]: 79.2%
- viability, T/C [26]: 83.7%
- viability, T/C [27]: 75%
- viability, T/C [28]: 75.9%
- viability, T/C [29]: 71%
- viability, T/C [30]: 62.8%
- viability, T/C [31]: 69.4%
- viability, T/C [32]: 70.4%
- viability, T/C [33]: 69.5%
- viability, T/C [34]: 73.3%
- viability, T/C [35]: 68.1%
- viability, T/C [36]: 64.1%
- viability, T/C [37]: 63.3%
- viability, T/C [38]: 69.6%
- viability, T/C [39]: 72.1%
- viability, T/C [40]: 64.1%
- viability, T/C [41]: 67%
- viability, T/C [42]: 51.8%

SMILES: C=C(F)C(=O)N1CCN(c2nc(OCC3CCCN3C)nc3c2CCN(c2cccc4cccc(Cl)c24)C3)CC1CC#N (stereo not drawn) + CNC(=O)c1ccc(Nc2nc(OC3CCCC3)c3c(-c4ccc5nc(C)oc5c4)c[nH]c3n2)c(OC)c1
- IC50 [1]: > 10 µM
- IC50 [2]: > 10 µM
- IC50 [3]: > 10 µM
- IC50 [4]: > 10 µM
- IC50 [5]: > 10 µM
- IC50 [6]: 7.59 µM
- viability, T/C [7]: 83.5%
- viability, T/C [8]: 105%
- viability, T/C [9]: 85.8%
- viability, T/C [10]: 101%
- viability, T/C [11]: 115%
- viability, T/C [12]: 99%
- viability, T/C [13]: 98.2%
- viability, T/C [14]: 95.4%
- viability, T/C [15]: 107%
- viability, T/C [16]: 112%
- viability, T/C [17]: 111%
- viability, T/C [18]: 108%
- viability, T/C [19]: 79.8%
- viability, T/C [20]: 80.9%
- viability, T/C [21]: 89.1%
- viability, T/C [22]: 92.9%
- viability, T/C [23]: 82.7%
- viability, T/C [24]: 93.5%
- viability, T/C [25]: 81.9%
- viability, T/C [26]: 79.7%
- viability, T/C [27]: 77.6%
- viability, T/C [28]: 78.5%
- viability, T/C [29]: 94.5%
- viability, T/C [30]: 107%
- viability, T/C [31]: 74.4%
- viability, T/C [32]: 70.2%
- viability, T/C [33]: 76.1%
- viability, T/C [34]: 78.1%
- viability, T/C [35]: 80.9%
- viability, T/C [36]: 90.4%
- viability, T/C [37]: 71.6%
- viability, T/C [38]: 76.4%
- viability, T/C [39]: 76.1%
- viability, T/C [40]: 80%
- viability, T/C [41]: 71.3%
- viability, T/C [42]: 43%

SMILES: O=C(c1cc(Cc2n[nH]c(=O)c3ccccc23)ccc1F)N1CCN(C(=O)C2CC2)CC1
- viability, T/C (compound 0.0316 µM): 100% and 107%
- viability, T/C (compound 0.1 µM): 97.7% and 89.2%
- viability, T/C (compound 0.316 µM): 88.7% and 107%
- viability, T/C (compound 1 µM): 98.2% and 104%
- viability, T/C (compound 3.16 µM): 98.8% and 108%
- viability, T/C (compound 10 µM): 89.5% and 94.8%
- IC50 (curve of compound): > 10 µM

SMILES: CC(C)CC(NC(=O)C(Cc1ccccc1)NC(=O)c1cnccn1)B(O)O (stereo not drawn)
- viability, T/C (compound 0.000949 µM): 89.2% and 97.4%
- viability, T/C (compound 0.003 µM): 109% and 134%
- viability, T/C (compound 0.00949 µM): 31.1%
- viability, T/C (compound 0.03 µM): 23.3% and 18.4%
- viability, T/C (compound 0.0949 µM): 12.5% and 15.6%
- viability, T/C (compound 0.3 µM): 5.93% and 5.56%
- IC50 (curve of compound): 0.00688 µM and 0.00733 µM
